These results are taken from patent publication US8840886B2, “Method of treating cancer with DLL4 antagonist and chemotherapeutic agent” (Regeneron Pharmaceuticals, Inc., priority 2009, dated 2014).

Common to all, as to assay type: in vivo, mouse
For assay [1], the system named is human A549 tumor cells (non-small cell lung cancer). Kind of assay: A549 NSCLC xenograft tumor growth, REGN421 with cisplatin (Example 2). The method, then: The effect of REGN421 in combination with cisplatin on tumor growth was evaluated on tumors implanted in humanized Dll4 SCID mice, as described above. Each mouse was implanted subcutaneously (sc) with 5×10^6 human A549 tumor cells (non-small cell lung cancer or “NSCLC”). After the tumors were established in the mice (tumor size of 100-150 mm^3, approximately 29 days after implantation), tumors were measured, randomized and treated with hFc, REGN421, cisplatin or combination of REGN421 and cisplatin. A total of 36 mice were divided into 6 groups (n=6 per cohort). The first group was treated sc with hFc at 2 mg/kg; the second group was treated sc with REGN421 at 2 mg/kg; the third and fourth groups were treated ip with cisplatin at 2.5 and 4.5 mg/kg, respectively; the fifth group was treated sc with REGN421 at 2 mg/kg and ip with cisplatin at 2.5 mg/kg; and the sixth group was treated sc with REGN421 at 2 mg/kg and ip with cisplatin at 4.5 mg/kg. REGN421 was administered every 3-4 days starting on day 29 and mice received three doses total. Cisplatin was administered every 24 hours starting on day 29 and mice received two doses total.
To assess the effects of REGN421 and cisplatin as single agents or in combination we measured tumor size (volume), beginning three days before the initial REGN421 treatment, on the day of each agent treatment (days 29, 30, 33, 36) and thereafter every 3-4 days until tumors reached ˜600 mm^3 in size. In vivo tumor size was calculated using the formula (length×width^2)/2.

The subject of assay [2] is human VM-Cub1 tumor cells (bladder carcinoma cells). Description: VM-Cub1 bladder carcinoma xenograft tumor growth, REGN421 with cisplatin (Example 1). The note with it: for TGI: 4 doses, at day 32; for Euthanized: control cohort euthanized day 32; for TGD: time to 600 mm^3 vs control. The method, then:
The effect of anti-Dll4 antibody (REGN421) in combination with cisplatin (platinol, cis-diamminedichloroplatinum) on tumor growth was evaluated on tumors implanted in Severe Combined Immunodeficiency (SCID) mice expressing a humanized Dll4 protein (humanized Dll4 SCID mice). The humanized Dll4 SCID mouse was made by replacing the entire extracellular domain of the mouse Dll4 gene with the corresponding extracellular region of the human Dll4 gene (7 kb) in embryonic stem (ES) cells. Homozygous hDll4 mice were generated and bred into SCID background.
Each mouse was implanted subcutaneously (sc) with 1×10^6 human VM-Cub1 tumor cells (bladder carcinoma cells) plus MATRIGEL™ (BD Biosciences, #354234). After the tumors were established in the mice (tumor size of 150-200 mm^3, approximately 14 days after implantation), tumors were measured, randomized and treated with hFc, REGN421, cisplatin, or combination of REGN421 and cisplatin. A total of 45 mice were divided into nine groups (n=5 per cohort). The first group was treated subcutaneously (sc) with hFc at 2 mg/kg; the second and third groups were treated sc with REGN421 at 0.5 and 2 mg/kg, respectively; the fourth and fifth groups were treated intraperitoneally (ip) with cisplatin at 0.5 and 2 mg/kg, respectively; the sixth group was treated sc with REGN421 at 0.5 mg/kg and ip with cisplatin at 0.5 mg/kg; the seventh group was treated sc with REGN421 at 0.5 mg/kg and ip with cisplatin at 2 mg/kg; the eighth group was treated sc with REGN421 at 2 mg/kg and ip with cisplatin at 0.5 mg/kg; and the ninth group was treated sc with REGN421 at 2 mg/kg and ip with cisplatin at 2 mg/kg. REGN421 was administered every 3-4 days starting on day 14 and mice received three doses total. Cisplatin was administered every 24 hours starting on day 14; mice received four doses total.
To assess the effects of REGN421 and cisplatin as single agents or in combination treatments, the changes in tumor size were recorded. Tumor growth was measured three days before the initial REGN421 treatment, on the day of each REGN421 treatment (days 14, 17 and 21) and thereafter every 3-4 days until tumors reached ˜600 mm^3 in size. In vivo tumor size was calculated using the formula (length×width^2)/2 (FIG. 1 and Table 1).
Tumor Growth Inhibition, TGI, was determined by calculating the difference in tumor size for treated (T) versus vehicle control (C) tumor at the day the control cohort was euthanized (i.e., at day 32); TGI=[1−(Tfinal−Tinitial)/(Cfinal−Cinitial)]×100.
Tumor growth delay, TGD, was assessed as the difference in days between treated (T) versus control (C) tumors when each cohort reached a specified tumor size. The predetermined tumor size for this experiment was 600 mm^3.

Assay [3] relates to human MDA-MB-231 breast tumor cells. Kind of assay: MDA-MB-231 breast tumor growth in SCID mice, REGN577 with docetaxel (Example 4). Conditions: for reduction of tumor growth: at Day 63. The procedure: The effect of anti-Dll4 antibody in combination with docetaxel (TAXOTERE®, sanofi-aventis) on tumor growth was evaluated on tumors implanted in Severe Combined Immunodeficiency (SCID) mice. Each mouse was implanted ‘pseudo-orthotopically’ (subcutaneously into mammary gland #3) with 5×10^6 human MDA-MB-231 breast tumor cells with MATRIGEL™ (BD Biosciences lot #84540). After the tumors were established in the mice (tumor size of ˜150-200 mm^3, approximately 45 days after implantation), mice were treated with hFc, docetaxel, Dll4 antibody, or a combination of docetaxel plus Dll4 antibody. A total of 25 tumor-bearing […] mice were randomized into five groups (N=5 mice per group). The first group was treated subcutaneously with hFc (at 25 mg/kg) and intravenously (iv) with vehicle; the second group was treated with Dll4 antibody REGN577 sc at 5 mg/kg; the third group was treated with docetaxel iv at 4.5 mg/kg; the fourth group was treated with docetaxel iv at 6 mg/kg; the fifth group was treated with docetaxel iv at 6 mg/kg plus REGN577 sc at 5 mg/kg. Docetaxel and/or Dll4 antibody were administered on the same day. Animals were treated 2 times per week and received a total of 3 doses. Starting from the day of initial treatment, body weight and tumors were measured twice a week until the mice are euthanized. Mice were euthanized when tumors reached ˜600 mm^3 in size. Tumor size was calculated using the formula (length×width^2)/2.

Assay [4] relates to rat C6 tumor cells (glioblastoma cells). Description: C6 glioblastoma tumor growth in SCID mice, REGN577 with docetaxel (Example 3). The procedure:
The effect of anti-Dll4 antibody in combination with docetaxel (TAXOTERE®) on tumor growth was evaluated on tumors implanted in Severe Combined Immunodeficiency (SCID) mice. Each mouse was implanted subcutaneously (sc) with 1×10^6 rat C6 tumor cells (glioblastoma cells). After the tumors were established (tumor size of ˜100-150 mm^3, approximately 13 days after implantation), the mice were treated with hFc, docetaxel, Dll4 antibody, or a combination of docetaxel plus Dll4 antibody. Since these mice expressed mouse Dll4, the Dll4 Ab used in this experiment was prepared in-house, based on the published sequence (WO 2007/143689), and designated as REGN 577. […] A total of 30 tumor-bearing male mice were randomized into six groups (N=5). […] Starting from the day of initial treatment, body weight and tumors were measured twice a week until the mice were euthanized when tumors reached ˜600 mm^3 in size. Tumor size was calculated using the formula, (length×width^2)/2.

The subject of assay [5] is human HCT116 tumor cells (CRC). Description: HCT116 colorectal xenograft tumor growth, REGN421 with 5-FU (Example 5). The method, then:
The effect of anti-Dll4 Ab (REGN421) in combination with 5-FU on tumor growth was evaluated on tumors implanted in humanized Dll4 SCID mice. Each mouse was implanted subcutaneously (sc) with 5×10^6 human HCT116 tumor cells (CRC). After the tumors were established in the mice (tumor size of ˜150 mm^3, 22 days after implantation), tumors were measured and randomized. The mice were then treated with hFc, REGN421, 5-FU or combination of REGN421 and 5-FU. A total of 30 mice were divided into 6 groups (n=5 per cohort). The first group was treated sc with hFc at 2 mg/kg; the second group was treated sc with REGN421 at 2 mg/kg; the third and fourth groups were treated ip with 5-FU at 15 and 25 mg/kg, respectively; the fifth group was treated sc with REGN421 at 2 mg/kg and ip with 5-FU at 15 mg/kg; and the sixth group was treated sc with REGN421 at 2 mg/kg and ip with 5-FU at 25 mg/kg. REGN421 was administered every 3-4 days starting on day 22 and mice received three doses total. 5-FU was administered every 3-4 days starting on day 22 and mice received three doses total.
To assess the effects of REGN421 and 5-FU as single agents or in combination, the changes in tumor size (volume) were measured, beginning three days before the initial REGN421 treatment, and then on the day of each agent treatment (days 22, 26, 29) and thereafter every 3-4 days until tumors reach ˜600 mm^3 in size. In vivo tumor size is calculated using the formula (length×width^2)/2 (FIG. 3 and Table 5).

The next assay has as its system human HCT116 tumor cells. Kind of assay: HCT116 xenograft tumor growth, REGN421 with irinotecan (Example 6). The method, then:
Each mouse was implanted subcutaneously (sc) with 5×10^6 human HCT116 tumor cells. After the tumors were established in the mice (tumor size of ˜150 mm^3, 15 days after implantation), tumors were measured and randomized. The mice were then treated with hFc, REGN421, irinotecan or combination of REGN421 and irinotecan. A total of 30 mice were divided into 6 groups (n=5 per cohort). The first group was treated sc with hFc at 2 mg/kg; the second group was treated sc with REGN421 at 2 mg/kg; the third and fourth groups were treated ip with irinotecan at 7.5 and 25 mg/kg, respectively; the fifth group was treated sc with REGN421 at 2 mg/kg and ip with irinotecan at 7.5 mg/kg; and the sixth group was treated sc with REGN421 at 2 mg/kg and ip with irinotecan at 25 mg/kg. REGN421 was administered every 3-4 days starting on day 15 and mice received three doses total. Irinotecan was administered every 3-4 days starting on day 15 and mice received three doses total.
To assess the effects of REGN421 and irinotecan as single agents or in combination treatments, the changes in tumor size (volume) are measured, starting three days before the initial REGN421 treatment, and then on the day of each agent treatment (days 15, 19, 22) and thereafter every 3-4 days until tumors reach ˜600 mm^3 in size. In vivo tumor size is calculated using the formula (length×width^2)/2.

[6] abbreviates: docetaxel 4.5 mg/kg iv (13.5 mg/kg total dose).
[7] abbreviates: docetaxel 6 mg/kg iv (18 mg/kg total dose).

For `N.N.[Cl][Pt][Cl]` [Cisplatin, cis-diamminedichloroplatinum], the TGD in assay [1] (cisplatin 2.5 mg/kg ip (5 mg/kg total dose)) is 4 days; in assay [1] (cisplatin 4.5 mg/kg ip (9 mg/kg total dose)) it was 11 days; in assay [2] (cisplatin 0.5 mg/kg/dose ip), 13 days; in assay [2] (cisplatin 2 mg/kg/dose ip) it was 9 days. Moreover, the TGI – broadly, the reduction of tumour growth relative to the control group – is reported as 60.7% in assay [2] (cisplatin 0.5 mg/kg/dose ip); 61% in assay [2] (cisplatin 0.5 mg/kg/dose ip, listed as cisplatin); 53.8% in assay [2] (cisplatin 2 mg/kg/dose ip); 54% in assay [2] (cisplatin 2 mg/kg/dose ip, listed as cisplatin). The figures for the Euthanized in assay [2] (cisplatin 0.5 mg/kg/dose ip) and in assay [2] (cisplatin 2 mg/kg/dose ip) were 45 days and 41 days, respectively.
On to `CC(=O)O[C@@]12CO[C@@H]1C[C@H](O)[C@@]1(C)C(=O)[C@H](O)C3=C(C)[C@@H](OC(=O)[C@H](O)[C@@H](NC(=O)OC(C)(C)C)c4ccccc4)C[C@@](O)([C@@H](OC(=O)c4ccccc4)[C@H]21)C3(C)C` [Docetaxel, docetaxel], for which the TGD in assay [3] (setting [6]) stood at 4 days; in assay [3] (setting [7]), 4 days; in assay [4] (setting [6]) it was 6 days; in assay [4] (setting [7]) it was 7 days. Further, the “reduction of tumor growth” value in assay [3] (docetaxel 4.5 mg/kg iv) is on record as 37%; in assay [3] (docetaxel 6 mg/kg iv), 52%.
`O=c1[nH]cc(F)c(=O)[nH]1` [5-FU, 5-fluorouracil]: the TGD in assay [5] (5-FU 15 mg/kg ip (45 mg/kg total dose)) was found to be 4 days; in assay [5] (5-FU 25 mg/kg ip (75 mg/kg total dose)) it was 2 days.
Take `CCc1c2c(nc3ccc(OC(=O)N4CCC(N5CCCCC5)CC4)cc13)-c1cc3c(c(=O)n1C2)COC(=O)[C@]3(O)CC` [Irinotecan, irinotecan]: the TGD in the assay with human HCT116 tumor cells (irinotecan 7.5 mg/kg ip (22.5 mg/kg total dose)) came out at 8 days; in the assay on human HCT116 tumor cells (irinotecan 25 mg/kg ip (75 mg/kg total dose)), 16 days.
